Several values for one entry are separate records, joined by “and”; a condition that tells them apart may be missing. Identical values can stand only once. Like-named read-outs stand apart in the source and are kept apart here.
Legend:
VEGFR-2 = VEGFR-2 (Homo sapiens, UniProt P35968); assay: VEGFRx kinase assay (BPS Bioscience kit); details: VEGFR-2 inhibitory activity IC50, duplicate, luminescence kinase kit
Description: The kinase assay was performed according to BPS Bioscience® kinase assay kit protocols [17, 74, 75, 76, 77]. […] The master mixture (25 μL) was added to every well then inhibitor solution of each well, labeled as “Test Inhibitor”, was added. For the “Positive Control” and “Blank”, the same solution without inhibitor (Inhibitor buffer) was added. To the wells designated as “Blank”, 1x Kinase Buffer 1 was added. FLT1/VEGFR2/FLT3 enzyme was thawed on ice and diluted with 1x Kinase Buffer 1 then added to the wells designated “Positive Control” and “Test Inhibitor Control”. The plate was incubated at 30 °C for 45 min then ADP-Glo reagent/Kinase-Glo Max reagent was added to each well. The plate was covered with aluminum foil and incubated at room temperature for 15 min. The luminescence was measured using the microplate reader. In case of FLT1 and FLT3, the plate was incubated for 45 min, then Kinase Detection reagent was added to each well and the plate was covered with aluminum foil and incubated at room temperature for another 45 min. The luminescence was measured immediately using the Tecan–spark® reader. A “Blank” value was subtracted from all readings.

CCRF-CEM = assay: NCI-60 one-dose SRB screening; format: cell-based; details: Homo sapiens, Leukemia, 10 µM one dose, 48 h, read-out: growth percentage
RPMI-8226 = assay: NCI-60 one-dose SRB screening; format: cell-based; details: Homo sapiens, RPMI-8226, Leukemia, 10 µM one dose, 48 h, read-out: growth percentage
HCC-2998 = assay: NCI-60 one-dose SRB screening; format: cell-based; details: Homo sapiens, HCC-2998, Colon Cancer, 10 µM one dose, 48 h, read-out: growth percentage
HCT-116 = assay: NCI-60 one-dose SRB screening; format: cell-based; details: Homo sapiens, HCT-116, Colon Cancer, 10 µM one dose, 48 h, read-out: growth percentage
SW-620 = assay: NCI-60 one-dose SRB screening; format: cell-based; details: Homo sapiens, SW-620, Colon Cancer, 10 µM one dose, 48 h, read-out: growth percentage
SK-OV-3 = assay: NCI-60 one-dose SRB screening; format: cell-based; details: Homo sapiens, SK-OV-3, Ovarian Cancer, 10 µM one dose, 48 h, read-out: growth percentage
DU-145 = assay: NCI-60 one-dose SRB screening; format: cell-based; details: Homo sapiens, DU-145, Prostate Cancer, 10 µM one dose, 48 h, read-out: growth percentage
MDA-MB-435 = assay: NCI-60 one-dose SRB screening; format: cell-based; details: Homo sapiens, MDA-MB-435, Melanoma, 10 µM one dose, 48 h, read-out: growth percentage
SF-295 = assay: NCI-60 one-dose SRB screening; format: cell-based; details: Homo sapiens, SF-295, CNS Cancer, 10 µM one dose, 48 h, read-out: growth percentage
HS 578T = assay: NCI-60 one-dose SRB screening; format: cell-based; details: Homo sapiens, Breast Cancer, 10 µM one dose, 48 h, read-out: growth percentage
NCI-H322M = assay: NCI-60 one-dose SRB screening; format: cell-based; details: Homo sapiens, Non-Small Cell Lung Cancer, 10 µM one dose, 48 h, read-out: growth percentage
MDA-MB-231/ATCC = assay: NCI-60 one-dose SRB screening; format: cell-based; details: Homo sapiens, Breast Cancer, 10 µM one dose, 48 h, read-out: growth percentage
MALME-3M = assay: NCI-60 one-dose SRB screening; format: cell-based; details: Homo sapiens, Melanoma, 10 µM one dose, 48 h, read-out: growth percentage
HOP-62 = assay: NCI-60 one-dose SRB screening; format: cell-based; details: Homo sapiens, HOP-62, Non-Small Cell Lung Cancer, 10 µM one dose, 48 h, read-out: growth percentage
A549/ATCC = assay: NCI-60 one-dose SRB screening; format: cell-based; details: Homo sapiens, Non-Small Cell Lung Cancer, 10 µM one dose, 48 h, read-out: growth percentage
HepG2 cells = assay: Wound-healing assay; format: cell-based, human; details: HepG2, serum-free media, 24 h, vs DMSO-treated cells
Description: A wound-healing assay is a simple and economical assay used to investigate the anti-metastatic activity of compounds. Cells were treated with compound 12b in serum-free media for 24 h. After that, the cells were fixed with ice-cold methanol and air-dried, then stained with 0.5% crystal violet.

[1] = test system: NCI-59 human cancer cell lines; assay: NCI-60 one-dose SRB screening, full panel and subpanels; format: cell-based; details: Homo sapiens; for inhibition at 10 µM: read-out: growth-inhibitory % activity, up to

Sequence of VEGFR-2 (P35968 789-1356 limits assumed): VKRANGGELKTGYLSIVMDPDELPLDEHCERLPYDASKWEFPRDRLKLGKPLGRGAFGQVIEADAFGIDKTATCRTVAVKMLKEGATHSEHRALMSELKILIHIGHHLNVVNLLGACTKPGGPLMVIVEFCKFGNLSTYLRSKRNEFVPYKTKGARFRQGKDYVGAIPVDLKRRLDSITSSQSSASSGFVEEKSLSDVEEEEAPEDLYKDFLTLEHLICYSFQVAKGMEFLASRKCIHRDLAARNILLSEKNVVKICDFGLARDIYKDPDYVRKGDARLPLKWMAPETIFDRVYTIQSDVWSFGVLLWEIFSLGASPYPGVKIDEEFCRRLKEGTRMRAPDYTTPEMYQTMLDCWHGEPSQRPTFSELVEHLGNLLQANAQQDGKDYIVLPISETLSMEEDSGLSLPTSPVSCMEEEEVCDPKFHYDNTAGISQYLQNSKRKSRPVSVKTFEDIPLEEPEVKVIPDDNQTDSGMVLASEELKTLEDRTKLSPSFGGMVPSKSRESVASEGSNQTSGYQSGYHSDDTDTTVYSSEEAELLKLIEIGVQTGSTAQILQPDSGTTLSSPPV

**Q.** Which IC50 (VEGFR-2) does the source give for `[O-][n+]1onc(-c2ccccc2)c1CNc1ccc(Nc2nc(C(F)(F)F)nc3c2cnn3-c2ccc(Br)cc2)cc1` [12b, 3-(((4-((1-(4-bromophenyl)-6-(trifluoromethyl)-1H-pyrazolo[3,4-d]pyrimidin-4-yl)amino)phenyl)amino)methyl)-4-phenyl-1,2,5-oxadiazole 2-oxide] here?
**A.** 92 nM and 90 nM

**Q.** And the activity at 10 µM (CCRF-CEM)?
**A.** 48.5%

**Q.** What about the activity at 10 µM (RPMI-8226) of the same molecule?
**A.** 73.8%

**Q.** And the activity at 10 µM (HCC-2998)?
**A.** 75.1%

**Q.** And the activity at 10 µM (HCT-116)?
**A.** 46.7%

**Q.** What about the activity at 10 µM (SW-620) of the same molecule?
**A.** 84.8%

**Q.** What about the activity at 10 µM (SK-OV-3) of the same molecule?
**A.** 88.8%

**Q.** And the activity at 10 µM (DU-145)?
**A.** 70.8%

**Q.** And the activity at 10 µM (MDA-MB-435)?
**A.** 72.8%

**Q.** What about the activity at 10 µM (SF-295) of the same molecule?
**A.** 54.5%

**Q.** What about the activity at 10 µM (HS 578T) of the same molecule?
**A.** 77.6%

**Q.** What about the activity at 10 µM (NCI-H322M) of the same molecule?
**A.** 74.1%

**Q.** What about the activity at 10 µM (MDA-MB-231/ATCC) of the same molecule?
**A.** 69.7%

**Q.** What about the activity at 10 µM (MALME-3M) of the same molecule?
**A.** 93.5%

**Q.** And the activity at 10 µM (HOP-62)?
**A.** 77.9%

**Q.** And the activity at 10 µM (A549/ATCC)?
**A.** 64.4%

**Q.** And the “rate of wound healing” value (HepG2 cells)?
**A.** decreased the rate of wound healing

**Q.** What about the inhibition at 10 µM ([1]; CNS cancer cell lines) of the same molecule?
**A.** ≤ 45%

**Q.** What about the inhibition at 10 µM ([1]; breast cancer cells) of the same molecule?
**A.** ≤ 61%

**Q.** What about the inhibition at 10 µM ([1]; colon cancer cell lines) of the same molecule?
**A.** ≤ 62%

**Q.** What about the inhibition at 10 µM ([1]; leukemia cell lines) of the same molecule?
**A.** ≤ 77%

**Q.** And the inhibition at 10 µM ([1]; melanoma cell lines)?
**A.** ≤ 72%

**Q.** What about the inhibition at 10 µM ([1]; non-small cell lung cancer cell lines) of the same molecule?
**A.** ≤ 64%

**Q.** What about the inhibition at 10 µM ([1]; ovarian cancer cell lines) of the same molecule?
**A.** ≤ 40%

**Q.** And the inhibition at 10 µM ([1]; prostate cancer cell lines)?
**A.** ≤ 52%

**Q.** What about the inhibition at 10 µM ([1]; renal cancer cell lines) of the same molecule?
**A.** ≤ 69%

**Q.** And the activity at 10 µM ([1]; mean over the full panel, 10 µM one dose, 48 h, SRB, read-out: growth percentage, Mean)?
**A.** 66.8%

Reference: article PMC8880564, “Design, Synthesis, and Biological Evaluation of a Novel VEGFR-2 Inhibitor Based on a 1,2,5-Oxadiazole-2-Oxide Scaffold with MAPK Signaling Pathway Inhibition” (Pharmaceuticals, 2022)
